Assay results as given in ChEMBL document CHEMBL5120770, “Sarubicinols A-C, Cytotoxic Benzoxazoles from a Streptomyces” (J Nat Prod, 2022).
pIC50: −log10 of the molar value.

Tests used:
Format in all cases: functional, cell-based
A549 = experiment: Cytotoxicity against human A549 cells assessed as cell growth inhibition incubated for 72 hrs by CCK8 assay; details: A549, 72 h
HCT-116 = experiment: Cytotoxicity against human HCT-116 cells assessed as cell growth inhibition incubated for 72 hrs by CCK8 assay; details: HCT-116, 72 h
HepG2 = experiment: Cytotoxicity against human HepG2 cells assessed as cell growth inhibition incubated for 72 hrs by CCK8 assay; details: HepG2, 72 h
4T1 = experiment: Cytotoxicity against mouse 4T1 cells assessed as cell growth inhibition incubated for 72 hrs by CCK8 assay; details: 4T1, 72 h

Structure (SMILES)	pIC50 (A549)	pIC50 (HCT-116)	pIC50 (HepG2)	pIC50 (4T1)
CC(O)c1cccc2c1C(=O)C(N)=C(C(N)=O)C2=O (stereo unspecified)	6.05	5.68	5.72	5.89
C[C@H]1O[C@@H]2C[C@@H](O)[C@@]1(O)C1=C2C(=O)C(C(N)=O)=C(N)C1=O	5.85	6.15	5.92	6.05
C[C@H]1O[C@@H]2C[C@@H](O)[C@@]1(O)c1c2c(O)c(C(N)=O)c2nc([C@@H](O)[C@@H](O)CO)oc12	5.32	5.36	5.25	5.37
NC(=O)C1=C(N)C(=O)c2c(O)cccc2C1=O	5.08	4.94	5.05	4.83
C[C@H]1O[C@@H]2C[C@@H](O)[C@@]1(O)c1c2c(O)c(C(N)=O)c2ncoc12	5.14	5.17	4.91	5.24
CC(=O)c1cccc2c1C(=O)C(N)=C(C(N)=O)C2=O	4.87	4.83	5.20	5.12
COc1cccc2c1C(=O)c1c(O)c3c(c(O)c1C2=O)C[C@@](O)(C(=O)CO)C[C@@H]3O[C@H]1C[C@H](N)[C@H](O)[C@H](C)O1 [DOXORUBICIN]	–	7.10	6.89	7.05
C[C@H]1O[C@@H]2C[C@@H](O)[C@@]1(O)c1c2c(O)c(C(N)=O)c2nc([C@@H](O)CO)oc12	5.19	5.25	5.05	5.32
